Experimental data: PMC2771923 (Journal of medicinal chemistry, 2008)

Assays:
[1] = biological target: PRWT (optimized wild-type HIV-1 PR) (Human immunodeficiency virus type 1 group M subtype B, UniProt P04585, C555A/C583A/L521I/L551I/Q495K)
[2] = biological target: PRV32I (V32I mutant HIV-1 PR) (Human immunodeficiency virus type 1 group M subtype B, UniProt P04585, C555A/C583A/L521I/L551I/Q495K/V520I)
PR dimers = settings: fluorescent-tagged PR monomers; cited from earlier work
HIV-1 PR = HIV-1 PR (Human immunodeficiency virus type 1 group M subtype B, UniProt P04585); settings: cited from earlier work

For `CC(C)CN(C[C@@H](O)[C@H](Cc1ccccc1)NC(=O)O[C@H]1CCOC1)S(=O)(=O)c1ccc(N)cc1` [APV, amprenavir], the “γ (factor of γKi)” value [1] was 0.22, the “δ (factor of δKi)” value [1] was 0.23 and the “Ki^uncomp (uncompetitive inhibition constant)” value ([1]; from intercept replots of Lineweaver-Burk plots) was 0.028 µM. The “γKi smaller compared to Ki^uncomp” value ([1]; ratio Ki^uncomp / γKi) was 4.5 fold, the “γ (factor of γKi)” value [2] was 0.45 and the “δ (factor of δKi)” value [2] was 0.28. For the same compound, the “inhibition of the formation of PR dimers” value (PR dimers) was “absence of APV inhibition”.

In the case of `CC(C)(C)NC(=O)[C@@H]1C[C@@H]2CCCC[C@@H]2CN1C[C@@H](O)[C@H](Cc1ccccc1)NC(=O)[C@H](CC(N)=O)NC(=O)c1ccc2ccccc2n1` [SQV, saquinavir], the type of inhibition [1] is reported as “purely competitive inhibition” and the type of inhibition [2] is reported as “purely competitive inhibition”.

With `CC(C)CN(C[C@@H](O)[C@H](Cc1ccccc1)NC(=O)O[C@H]1CO[C@H]2OCC[C@H]21)S(=O)(=O)c1ccc(N)cc1` [DRV, darunavir] the “γ (factor of γKi)” value [1] was 1.2, the “δ (factor of δKi)” value [1] was 0.5 and the “γ (factor of γKi)” value [2] was 1.7. The “δ (factor of δKi)” value [2] was 0.3, the “inhibition of the formation of PR dimers” value (PR dimers) was “inhibited the formation of PR dimers” and the “affinity for HIV-1 PR” value (HIV-1 PR) was “exceptionally high affinity”. For the same compound, the dissociation rate (HIV-1 PR) was “greatly decreased dissociation rate”.
